Blank lines part the entries; values can stand above or below the molecule they belong to.
Experiments:
[1] = target: Human FXIa (Homo sapiens, UniProt P03951); test: In vitro activated factor XI (FXIa) inhibition test; assay type: biochemical
[2] = system: Rabbit nail bleeding models; test: Effect of combined use with antiplatelet drug using rabbit nail bleeding model; assay type: in vivo; details: alone; for Bleeding time: rabbit, maximum 60 minutes; for Bleeding time (fold-increase): ratio to vehicle group average
Experimental: Rabbit nail bleeding models were prepared by a modification of the report of Wong et al. (Wong P C. et al., J. Thromb. Haemost. 7: 1313-1320 (2009)). Male rabbits (JW, 1.5 to 3.5 kg) were anesthetized by the inhalation of isoflurane (ISOFLU®, manufactured by DS Pharma Animal Health Co., Ltd.) (introduced anesthesia: 4%, continuous anesthesia: 2 to 3%). For the intravenous administration of a test drug or a vehicle, an indwelling needle was inserted to the auricular vein, and the test drug or the vehicle was promptly intravenously administered (0.67 mL/kg) and then continuously intravenously administered (1 mL/kg/hr). One hour after the start of administration, three posterior toenails were cut and dipped in saline heated to approximately 37° C., and the bleeding time was measured. The bleeding time was defined as a time from the cutting to the arrest of bleeding, and an average value from the three nails was used. The measurement time was 60 minutes at the maximum. If bleeding for 60 minutes or longer was confirmed, the bleeding time was regarded as 60 minutes.

[3] = system: Rabbit venous thrombus models; test: Effect of combined use with antiplatelet drug using rabbit AVST model; assay type: in vivo; details: alone
Experimental: Rabbit venous thrombus models were prepared by a modification of the report of Wong et al. (Wong P C. et al., J. Pharmacol. Exp. Ther. 292: 351-357 (2000)). […] A tracheostomy tube was inserted to each rabbit, which was then ventilated using a respirator. For the intravenous administration of a test drug and blood collection, catheters were inserted to the right femoral vein and the right femoral artery, respectively. An arteriovenous shunt filled with saline was inserted to the carotid artery and the jugular vein. […] Also, 4-0 silk thread having a length of 5 cm was indwelled in the arteriovenous shunt. Blood was sent for 30 minutes from the carotid artery to the jugular vein via the arteriovenous shunt. The shunt was removed, and the weight of the silk thread covered with thrombus was measured. The weight of the silk thread measured before the experiment was subtracted from the measured weight, and the obtained value was used as a wet thrombus weight. One hour before the open of the arteriovenous shunt, the test drug or a vehicle was promptly intravenously administered (0.67 mL/kg) and then continuously intravenously administered (1 mL/kg/hr). The continuous injection was continued throughout the experiment. […] STA calcium chloride (manufactured by Roche Diagnostics K.K.) was added in an amount equal thereto, and the time required for coagulation was measured.

[4] = system: Rabbit venous thrombus models; test: In vivo antithrombotic effect evaluation test using rabbit (arteriovenous shunt); details: prompt i.v. + continuous i.v.
Experimental: Rabbit venous thrombus models were prepared by a modification of the report of Wong et al. (Wong P C. et al., J. Pharmacol. Exp. Ther. 292: 351-357 (2000)). Male rabbits (JW, 2 to 4 kg) were anesthetized by the inhalation of isoflurane (ISOFLU®, manufactured by DS Pharma Animal Health Co., Ltd.) (introduced anesthesia: 4%, continuous anesthesia: 1.5 to 2.5%). A tracheostomy tube was inserted to each rabbit, which was then ventilated using a respirator. For the intravenous administration of a test drug and blood collection, catheters were inserted to the right femoral vein and the right femoral artery, respectively. An arteriovenous shunt filled with saline was inserted to the carotid artery and the jugular vein. The arteriovenous shunt was prepared by connecting Atom extension tubes (4Fr) having lengths of 15 cm and 13 cm to the artery side and the vein side, respectively, of a polyethylene tube (length: 60 cm, outside diameter: 11.1 mm, inside diameter: 7.9 mm). Also, 4-0 silk thread having a length of 5 cm was indwelled in the arteriovenous shunt. Blood was sent for 30 minutes from the carotid artery to the jugular vein via the arteriovenous shunt. The shunt was removed, and the weight of the silk thread covered with thrombus was measured. The weight of the silk thread measured before the experiment was subtracted from the measured weight, and the obtained value was used as a wet thrombus weight. One hour before the open of the arteriovenous shunt, the test drug or a vehicle was promptly intravenously administered (0.67 mL/kg) and then continuously intravenously administered (1 mL/kg/hr). The continuous injection was continued throughout the experiment. Further, an existing anticoagulant dabigatran (antithrombin drug) and rivaroxaban (FXa inhibitor) were tested as control drugs.
In order to measure aPTT of blood samples as an index for the intrinsic coagulation pathway, blood was collected before administration and immediately before cessation of blood flow, and plasma was prepared using 3.2% sodium citrate. After incubation at 37° C. for 6 minutes, an STA reagent Cephascreen (for aPTT assay; manufactured by Roche Diagnostics K.K.) was added in an amount equal thereto, and the mixture was further incubated for 4 minutes. STA calcium chloride (manufactured by Roche Diagnostics K.K.) was added in an amount equal thereto, and the time required for coagulation was measured.
In order to measure prothrombin time (PT) of blood samples as an index for the extrinsic coagulation pathway, blood was collected before administration and immediately before cessation of blood flow, and plasma was prepared using 3.2% sodium citrate. After incubation at 37° C. for 10 minutes, Neoplastin Plus (for PT assay; manufactured by Roche Diagnostics K.K.) was added in a double amount, and the time required for coagulation was measured.

[5] = system: Rabbit nail bleeding models; test: Bleeding time evaluation test using rabbit nail bleeding model; assay type: in vivo; details: for Bleeding time: Experiment 1 (maximum 30 minutes), rabbit; for Bleeding time (fold-increase): Experiment 1, ratio to vehicle group average
Experimental: Rabbit nail bleeding models were prepared by a modification of the report of Wong et al. (Wong P C. et al., J. Thromb. Haemost. 7: 1313-1320 (2009)). Male rabbits (JW, 1.5 to 3.5 kg) were anesthetized by the inhalation of isoflurane (ISOFLU®, manufactured by DS Pharma Animal Health Co., Ltd.) (introduced anesthesia: 4%, continuous anesthesia: 2 to 3%).
For the intravenous administration of a test drug or a vehicle, an indwelling needle was inserted to the auricular vein, and the test drug or the vehicle was promptly intravenously administered (0.67 mL/kg) and then continuously intravenously administered (1 mL/kg/hr). One hour after the start of administration, three posterior toenails were cut and dipped in saline heated to approximately 37° C., and the bleeding time was measured. The bleeding time was defined as a time from the cutting to the arrest of bleeding, and an average value from the three nails was used. The measurement time was 30 minutes at the maximum for experiment 1 and 60 minutes at the maximum for experiment 2. In each experiment, if bleeding for 30 minutes or 60 minutes or longer was confirmed, the bleeding time was regarded as 30 minutes or 60 minutes.

[6] = dose 0.03 + 0.045 mg/kg + mg/kg/h i.v.
[7] = dose 0.1 + 0.15 mg/kg + mg/kg/h i.v.
[8] = dose 0.03 + 0.045 mg/kg + mg/kg/h
[9] = dose 0.1 + 0.15 mg/kg + mg/kg/h
[10] = dose 0.3 + 0.45 mg/kg + mg/kg/h
[11] = dose 0.3 + 0.45 mg/kg + mg/kg/h i.v.

Sequence of Human FXIa (P03951 388-625 limits assumed): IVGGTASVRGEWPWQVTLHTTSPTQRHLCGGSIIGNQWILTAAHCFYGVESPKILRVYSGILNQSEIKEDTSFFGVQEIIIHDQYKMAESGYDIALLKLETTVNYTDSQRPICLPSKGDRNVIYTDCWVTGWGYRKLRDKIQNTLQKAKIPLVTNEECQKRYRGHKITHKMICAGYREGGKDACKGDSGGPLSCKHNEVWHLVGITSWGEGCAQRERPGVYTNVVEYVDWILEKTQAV
Sequence of Human FXIa (P03951 19-387 partner limits assumed): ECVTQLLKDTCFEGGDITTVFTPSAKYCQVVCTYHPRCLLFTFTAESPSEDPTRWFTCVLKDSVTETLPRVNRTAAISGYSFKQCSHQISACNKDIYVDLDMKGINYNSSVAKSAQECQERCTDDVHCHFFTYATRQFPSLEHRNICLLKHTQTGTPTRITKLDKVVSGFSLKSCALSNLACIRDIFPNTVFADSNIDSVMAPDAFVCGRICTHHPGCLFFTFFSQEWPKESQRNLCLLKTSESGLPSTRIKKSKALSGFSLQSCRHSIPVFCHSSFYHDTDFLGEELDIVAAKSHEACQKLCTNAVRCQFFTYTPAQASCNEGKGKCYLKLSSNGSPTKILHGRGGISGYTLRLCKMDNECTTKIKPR

- IC50 [1]: 20 nM
SMILES: N[C@H](CF)[C@H]1CC[C@H](C(=O)N2CC[C@H](c3ccccc3)[C@H]2C(=O)Nc2ccc3[nH]c(C(=O)O)cc3c2)CC1

- IC50 [1]: 15 nM
SMILES: N[C@H](CF)[C@H]1CC[C@H](C(=O)N2CC[C@@H](c3ccccc3)[C@H]2C(=O)Nc2ccc3[nH]c(C(=O)O)cc3c2)CC1

- IC50 [1]: 34 nM
SMILES: N[C@H](CF)[C@H]1CC[C@H](C(=O)N2CC[C@@H](C3CCCCC3)[C@H]2C(=O)Nc2ccc3[nH]c(C(=O)O)nc3c2)CC1

- Bleeding time [2, 6]: 1614 ± 869 s
- Bleeding time [2, 7]: 2445 ± 964 s
- Bleeding time (fold-increase) [2, 6]: 2.8 ± 1.5 fold-increase
- Bleeding time (fold-increase) [2, 7]: 4.2 ± 1.7 fold-increase
- Bleeding time [5, 6]: 1031 ± 319 s
- Bleeding time [5, 7]: 1369 ± 334 s
- Bleeding time [5, 11]: 1733 ± 110 s
- Bleeding time (fold-increase) [5, 6]: 2.3 ± 0.7 fold-increase
- Bleeding time (fold-increase) [5, 7]: 3.0 ± 0.7 fold-increase
- Bleeding time (fold-increase) [5, 11]: 3.8 ± 0.2 fold-increase
SMILES: O=C(NC[C@H]1CN(c2ccc(N3CCOCC3=O)cc2)C(=O)O1)c1ccc(Cl)s1 [Rivaroxaban]
- PT (ratio) [3, 6]: 1.23 ± 0.05 ratio
- Thrombus weight [3, 6]: 92 ± 19 mg
- aPTT (ratio) [3, 6]: 1.22 ± 0.06 ratio
- PT (ratio) [3, 7]: 1.73 ± 0.15 ratio
- Thrombus weight [3, 7]: 58 ± 9 mg
- aPTT (ratio) [3, 7]: 1.50 ± 0.09 ratio
- PT (ratio) [4, 8]: 1.23 ± 0.05 ratio
- Thrombus weight [4, 8]: 92 ± 19 mg
- aPTT (ratio) [4, 8]: 1.22 ± 0.06 ratio
- PT (ratio) [4, 9]: 1.73 ± 0.15 ratio
- Thrombus weight [4, 9]: 58 ± 9 mg
- aPTT (ratio) [4, 9]: 1.50 ± 0.09 ratio
- PT (ratio) [4, 10]: 2.87 ± 0.33 ratio
- Thrombus weight [4, 10]: 29 ± 10 mg
- aPTT (ratio) [4, 10]: 1.87 ± 0.14 ratio
